Consider one compound from patent publication US20050075398A1, “Neuroprotectin D1 protects against cellular apoptosis, stroke damage, alzheimer's disease and retinal diseases” (priority 2003, published 2005).

For one assay, the system named is Bcl-2. As to the kind of experiment: Western blot of Bcl-2 in ARPE-19 cells under TNFα/H2O2. The format is cell-based, human. The note with it: 50 nM; TNFα plus H2O2 (400 or 800 μM) 6 h. Here is the method:
(§1) Analysis of pro- and anti-apoptotic proteins in ARPE-19 cells: Bcl-2 family proteins were analyzed by Western-blot analysis. In brief, 20-μg equivalents of each cell extract were subjected to electrophoresis on a 8-16% gel (Promega, Madison, Wis.) at 125 volts for 2 h. The proteins were transferred to nitrocellulose membrane at 30 volts for 1 h at 4° C. The membranes were subjected to treatment with primary antibodies of Bcl-2, Bcl-xL, Bax, and Bad for 1 h at room temperature, and probed 30 min with secondary antibody, goat anti-rabbit Ig:HRPO and HRP-conjugated anti-biotin antibody. (BD Sciences—Pharminogen, San Diego, Calif.) Then proteins were evaluated using an ECL kit. (Amersham Biosciences Corp., Piscataway, N.J.)
(§2) Using the same TNFα/H2O2 concentrations, Bcl-2 proteins were assayed. Cells were grown for 72 h after plating, placed in serum-free medium for 1 h, then incubated with TNFα/H2O2 for 6 h. Protein expression and Western-blot analysis were performed as described in Example 13. Data in FIGS. 14A, 14B, 14C and 14D represent four independent experiments with triplicate samples in each case. Anti-apoptotic protein Bcl-xL was enhanced in ARPE-19 cells by TNFα/H2O2 (800 μM) (FIG. 14B, first bar), whereas Bcl-2 was not changed (FIG. 14A, first bar).

A further assay concerns Bad. As to the kind of experiment: Western blot of Bad in ARPE-19 cells under TNFα/H2O2. The format is cell-based, human. The note with it: 50 nM; similar conditions (800 μM H2O2 with TNFα). Here is the method: as §1, §2
The test system of assay [1] is IL-1β-induced HIF-1α activation. As to the kind of experiment: EMSA of HIF-1α in IL-1β-exposed human neural progenitor cells. The format is cell-based. The following applies: HN progenitor cells; IL-1β 10 ng/ml 3 h. How it is done: Human neural (HN) progenitor cells in primary culture. HN cells were grown to ˜70% confluence (˜50,000 cells per 3.5-cm diameter well) in 6-well COSTAR plates at 37° C., 5% CO2/20% O2/75% N2 in humidified air at 1 atm (normoxic conditions) in NPMM medium (Clonetics CC-4241) supplemented with hFGF, NSF-1, hEGF, GA-1000, as described by the manufacturer (Clonetics, Walkersville, Md.). HN cells tested negative for HIV-1, hepatitis B and C, mycoplasma, bacteria, yeast, and fungi, and positive for the glial and neuronal markers GFAP, MAP2, and β-tubulin III (Clonetics). […]
Electrophoretic mobility-shift assay (EMSA) of human AP1, HIF-1α, NF-κBp50/p65, and STAT-1α. Nuclear protein extracts (NPXTs) were prepared from one to three 3.5 cm-diameter wells of HN cells and quantitated. NPXTs (5 μg) derived from HN cells were incubated with[γ-^32P]-ATP (˜3000 Ci/mmol)-end-labeled AP1, HIF-1α, NF-κκBp50/p65, or STAT-1α consensus and mutant oligonucleotides in 5-μl volumes, reacted for 30 min on ice, analyzed on 5% or 10% acrylamide/90 mM Tris-borate pH 8.4, 1 mM EDTA (TBE) gels, dried onto 2-mm Whatman filter paper at 80° C. for 2 h, and phosphorimaged using a Typhoon Variable Mode Imager (Amersham Pharmacia Biotech, Piscataway, N.J. ).

In the next assay the test system is COX-1 expression. As to the kind of experiment: COX-1 mRNA abundance in ipsilateral hippocampus after MCA-O. Type of assay: in vivo, mouse. The note with it: 1 h MCA-O, 2 h reperfusion, NPD1 0.16 μg/ml infused. How it is done: COX-2 RNA abundance in hippocampus and HN cells. Abundance of human-specific COX-1 and COX-2 RNA message was assayed using RT-PCR as described in Bazan, N. G., and Lukiw, W. J. (2002) J. Biol. Chem. 277, 30359-30367.
To determine COX-1 and COX-2 expression, mRNA abundance in the ipsilateral hippocampus was measured. […] A 3-fold increase of COX-2 was seen due to MCA-O reperfusion (FIG. 7C). The infusion of the precursor DHA as well as its product 10,17S-docosatriene (NPD1) inhibited COX-2 expression by 14% and 52%, respectively.

In the next assay the test system is Bfl-1(A1) protein. As to the kind of experiment: Western analysis of Bfl-1(A1) in HN cells. Type of assay: cell-based, human. The following applies: 50 nM, p<0.05. Here is the method: Western Analysis. Total protein was extracted, and 25 μg of protein was analyzed by Western blots using human Bcl-2, Bfl-1 (A1) and actin antibodies. […] Human specific anti-Bfl-1(A1)[Cat. No. sc-8351] was obtained from Santa Cruz Biotechnology (Santa Cruz, Calif.). For Western analysis, signal-intensity data were gathered by phosphorimaging onto molecular imaging screens (FUJIFILM) for 3-36 h using a Typhoon Molecular Imager system (Amersham Biosciences) as described in Bazan and Lukiw, 2002.
To confirm the above changes in Bcl-2 and Bfl-1(A1), Western analysis was performed using anti-Bcl-2, anti-Bfl-1(A1), and anti-actin primary antibodies (B3170 Sigma Life Science, sc-8351 Santa Cruz, and A2103 Sigma, respectively). The results of the Western analysis confirm up-regulation of Bcl-2 and Bfl-1(A1) anti-apoptotic proteins over actin controls in DHA- and NPD1-treated cells.

On to `CC/C=C\C[C@H](O)\C=C/C=C/C=C/[C@H](O)C/C=C\C/C=C\CCC(=O)O` [NPD1, 10,17S-docosatriene], for which, in the assay with Bcl-2, the “effect on Bcl-2 expression” value is on record as “increased expression”. Also, in the assay on Bad, the “decrease of oxidative stress-increased Bad” value is 52%. Further, the “effect on IL-1β-induced HIF-1α activation” value in assay [1] is on record as “but not IL-1β-induced HIF-1α activation, was inhibited”. Besides, the “decrease of COX-1 expression (mRNA)” value with COX-1 expression was found to be 19%. Besides, the “Bfl-1(A1) protein increase over controls, normalized with actin” value in the assay with Bfl-1(A1) protein is on record as 5.4 fold.
